The nature of data set [1]: Pharmacokinetic (PK) studies in beagle dog. Format: in vivo. As to conditions: dog, male beagle dogs, plasma. The protocol:
Test Example 8: Pharmacokinetic (PK) Studies in Beagle Dog
(§1) The compound of Example 12, Control Compound 1, Control Compound 2, and TNO-155 were administered to male beagle dogs by intravenous injection (IV) and gavage (PO) respectively to estimate the pharmacokinetic properties. Dosing amounts for IV and PO routes were 0.5 mg/kg and 2.5 mg/kg. The solvent for IV route was 5% DMSO+5% Solutol+90% Saline, and the solvent for PO route was 0.5% MC (sodium methylcellulose). Blood was collected at various time points after IV and PO administration. The blood was anticoagulated using EDTA.K2, and centrifuged to obtain plasma samples. The plasma samples were preserved at −80° C.
The plasma samples were subjected to protein precipitation and then to the LC-MS/MS analysis. WinNonlin 6.3 software was used to calculate the pharmacokinetic parameters by non-compartmental model, and the results were listed in Table 8 below.

The nature of data set [2]: Pharmacokinetic (PK) studies in Balb/c mouse. Format: in vivo. As to conditions: female, Balb/c, mouse, in vivo. The procedure: Test Example 7: Pharmacokinetic (PK) Studies in Balb/c Mouse
as §1, with “to female Balb/c mice” for “to male beagle dogs”, “were 1” for “were 0.5”, “and 10 mg/kg, respectively.” for “and 2.5 mg/kg.”, “blood from the test groups of the compound of Example 12, Control Compound 1, and Control Compound 2” for “blood”, “using EDTA.K2 and preserved at −80° C. The blood from the test groups of TNO-155 was anticoagulated using EDTA.K2” for “using EDTA.K2,”, “plasma samples, and the” for “plasma samples. The”
The blood or plasma samples were subjected to protein precipitation and then to the LC-MS/MS analysis. WinNonlin 6.3 software was used to calculate the pharmacokinetic parameters by non-compartmental model, and the results were listed in Table 7 below.

The nature of data set [3]: Pharmacokinetic (PK) studies in SD rat. Format: in vivo. The conditions noted are these: rat, male SD rats, plasma. The protocol: Test Example 6: Pharmacokinetic (PK) Studies in SD Rat
as §1, with “Example 12 and” for “Example 12,”, “Compound 2” for “Compound 1, Control Compound 2, and TNO-155”, “male SD rats” for “male beagle dogs”, “were 1” for “were 0.5”, “and 5 mg/kg, respectively.” for “and 2.5 mg/kg.”, “DMSO+5% Solutol (polyoxyl 15-hydroxystearate)+90% Saline (physiological saline),” for “DMSO+5% Solutol+90% Saline,”
The plasma samples were subjected to protein precipitation and then to the LC-MS/MS analysis. WinNonlin 6.3 software was used to calculate the pharmacokinetic parameters by non-compartmental model, and the results were listed in Table 6 below.

For the next data set, the target named is T1, CYP1A2 (Homo sapiens, UniProt P05177).
T1 construct: purchased Promega
T1 sequence (P05177 1-516): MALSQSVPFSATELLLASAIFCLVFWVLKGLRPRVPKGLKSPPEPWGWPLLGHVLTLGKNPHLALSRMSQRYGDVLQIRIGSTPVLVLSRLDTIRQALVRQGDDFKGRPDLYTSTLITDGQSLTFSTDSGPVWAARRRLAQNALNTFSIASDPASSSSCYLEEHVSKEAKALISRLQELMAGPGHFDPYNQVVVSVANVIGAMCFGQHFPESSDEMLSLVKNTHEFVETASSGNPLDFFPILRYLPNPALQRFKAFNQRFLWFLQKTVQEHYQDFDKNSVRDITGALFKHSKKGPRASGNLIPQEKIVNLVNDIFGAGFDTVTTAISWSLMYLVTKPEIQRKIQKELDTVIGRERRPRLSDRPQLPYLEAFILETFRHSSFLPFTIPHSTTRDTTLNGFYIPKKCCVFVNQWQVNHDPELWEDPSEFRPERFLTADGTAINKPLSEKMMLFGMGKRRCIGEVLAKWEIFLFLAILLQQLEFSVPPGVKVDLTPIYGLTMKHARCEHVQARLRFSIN
Put plainly: Biochemical assay for CYP enzyme inhibition, P450-Glo CYP1A2 Screening System. The format is in vitro ADME. As to conditions: estimated from percentage inhibition; read-out: IC50 (μM) CYP1A2. The procedure:
(§2) Test Example 5: Biochemical Assay for CYP Enzyme (Cytochrome P450) Inhibition
P450-Glo™ CYP1A2 Screening System, (Promega);
(§3) BMG PHERAstar FS Luminescent.
(§4) The experiments were carried out separately according to the instructions of the kits. The steps were as follows:
3.1. Inhibition Against CYP1A2:
Test group: The test compounds at different concentrations were added into a microplate, and Luciferin-ME (100 μM), K3PO4 (100 mM), and CYP1A2 (0.01 μmol/μL) were added into each well, and pre-incubated at room temperature for 10 min. Thereafter, an NADPH regeneration system was added. The mixture was reacted at room temperature for 30 min. Finally, an equal volume of detection buffer was added and incubated at room temperature for 20 min, followed by chemiluminescence detection.
(§5) Negative control group: The experimental method for the negative control group was the same as that for the test group, except that the test compound was not added.
Blank control group: The experimental method for the blank control group was the same as that for the test group, except that the test compound was not added and that CYP1A2 was replaced with CYP1A2 Membrance (0.01 μmol/μL).
(§6) Percentage inhibition=(1−(the chemiluminescent signal value of the test compound group at a certain test concentration−the chemiluminescent signal value of the blank control group)/(the chemiluminescent signal value of the negative control group−the chemiluminescent signal value of the blank control group))×100%.
(§7) When the percentage inhibition was between 30% and 80%, a single value or a value range of the half maximal inhibitory concentration (IC50) of the compound against the CYP enzyme was estimated based on the following equation: IC50=X×(1−percentage inhibition)/percentage inhibition, wherein X was the test concentration of the compound.

The next data set addresses T2, CYP3A4 (Homo sapiens, UniProt P08684).
T2 construct: purchased Promega
Put plainly: Biochemical assay for CYP enzyme inhibition, P450-Glo CYP3A4 Screening System. The format is in vitro ADME. The conditions noted are these: estimated from percentage inhibition; read-out: IC50 (μM) CYP3A4. The protocol:
as §2
P450-Glo™ CYP3A4 Screening System, (Promega).
as §3, §4
3.3. Inhibition Against CYP3A4:
Test group: The test compounds at different concentrations were added into a microplate, and Luciferin-IPA ([…]), K3PO4 (100 mM), and CYP3A4 (2 nM) were added into each well, and pre-incubated at room temperature for 10 min. Thereafter, an NADPH regeneration system was added. The mixture was reacted at room temperature for 30 min. Finally, an equal volume of detection buffer was added and incubated at room temperature for 20 min, followed by chemiluminescence detection.
as §5
Blank control group: The experimental method for the blank control group was the same as that for the test group, except that the test compound was not added and that CYP3A4 was replaced with CYP3A4 Membrance (2 nM).
as §6, §7

The target of the next data set is T3, CYP2D6 (Homo sapiens, UniProt P10635).
T3 construct: purchased Promega
T3 sequence (P10635 whole entry): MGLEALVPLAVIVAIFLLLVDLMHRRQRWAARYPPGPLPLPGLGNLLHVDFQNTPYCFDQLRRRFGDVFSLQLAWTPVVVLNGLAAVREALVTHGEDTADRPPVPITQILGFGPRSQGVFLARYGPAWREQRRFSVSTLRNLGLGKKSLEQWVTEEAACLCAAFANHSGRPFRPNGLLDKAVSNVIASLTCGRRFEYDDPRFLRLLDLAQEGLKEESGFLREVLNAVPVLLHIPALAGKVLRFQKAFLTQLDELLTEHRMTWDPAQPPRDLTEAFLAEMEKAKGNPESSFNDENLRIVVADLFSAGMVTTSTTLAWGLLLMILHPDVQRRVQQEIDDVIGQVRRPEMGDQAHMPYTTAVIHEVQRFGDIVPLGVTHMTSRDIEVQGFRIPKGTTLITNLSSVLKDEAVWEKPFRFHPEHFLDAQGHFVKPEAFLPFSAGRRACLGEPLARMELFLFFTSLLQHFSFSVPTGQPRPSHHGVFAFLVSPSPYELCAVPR
Put plainly: Biochemical assay for CYP enzyme inhibition, P450-Glo CYP2D6 Screening System. The format is in vitro ADME. The conditions noted are these: estimated from percentage inhibition; read-out: IC50 (μM) CYP2D6. The procedure:
as §2
P450-Glo™ CYP2D6 Screening System, (Promega);
as §3, §4
3.2. Inhibition Against CYP2D6:
Test group: The test compounds at different concentrations were added into a microplate, and Luciferin-ME EGE (3 μM), K3PO4 (100 mM), and CYP2D6 (5 nM) were added into each well, and pre-incubated at room temperature for 10 min. Thereafter, an NADPH regeneration system was added. The mixture was reacted at 37° C. for 30 min. Finally, an equal volume of detection buffer was added and incubated at room temperature for 20 min, followed by chemiluminescence detection.
as §5
Blank control group: The experimental method for the blank control group was the same as that for the test group, except that the test compound was not added and that CYP2D6 was replaced with CYP2D6 Membrance (5 nM).
as §6, §7

T2 sequence (P08684 whole entry): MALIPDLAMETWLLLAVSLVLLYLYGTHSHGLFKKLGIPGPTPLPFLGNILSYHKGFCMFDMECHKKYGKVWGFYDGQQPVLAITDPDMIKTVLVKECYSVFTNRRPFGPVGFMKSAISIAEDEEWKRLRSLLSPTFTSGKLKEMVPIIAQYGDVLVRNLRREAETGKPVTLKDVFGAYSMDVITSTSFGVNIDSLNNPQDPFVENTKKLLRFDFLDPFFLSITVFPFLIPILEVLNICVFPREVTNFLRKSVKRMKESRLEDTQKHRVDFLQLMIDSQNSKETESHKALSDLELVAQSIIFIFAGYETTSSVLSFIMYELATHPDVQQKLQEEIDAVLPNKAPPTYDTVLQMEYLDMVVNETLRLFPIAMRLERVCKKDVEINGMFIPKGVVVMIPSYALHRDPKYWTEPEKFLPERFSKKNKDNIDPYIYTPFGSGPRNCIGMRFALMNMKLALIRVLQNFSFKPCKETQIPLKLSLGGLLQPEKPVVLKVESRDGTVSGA

As for `Cc1nc(N2CCC3(CC2)CO[C@@H](C)[C@H]3N)c(CO)nc1Sc1ccnc(N)c1Cl` [Control Compound 2], the AUC(0-t) in data set [1] (IV, 0.5 mg/kg) is 614 ng·h/mL; in data set [1] (PO, 2.5 mg/kg), 2550 ng·h/mL; in data set [2] (iv, 1 mg/kg) it was 576 ng·h/mL; in data set [2] (po, 10 mg/kg) it was 3870 ng·h/mL; in data set [3] (IV, 1 mg/kg) it was 696 ng·h/mL; in data set [3] (PO, 5 mg/kg), 2760 ng·h/mL. Also, the clearance in data set [1] (IV, 0.5 mg/kg) was determined as 13.2 mL/min/kg; in data set [2] (iv, 1 mg/kg), 23.2 mL/min/kg; in data set [3] (IV, 1 mg/kg) it was 24.6 mL/min/kg. For the same compound, the half-life in data set [1] (PO, 2.5 mg/kg) was 12.3 h; in data set [2] (po, 10 mg/kg), 5.08 h. For the same compound, the Cmax in data set [3] (IV, 1 mg/kg) came to 215 ng/mL; in data set [3] (PO, 5 mg/kg) it was 363 ng/mL.
With `C[C@@H]1OCC2(CCN(c3ncc(Sc4ccnc(N5CC(O)C5)c4Cl)nc3CO)CC2)[C@@H]1N` [Control Compound 1], the exposure AUC(0-t) stood at 1220 ng·h/mL in data set [1] (IV, 0.5 mg/kg); 3910 ng·h/mL in data set [1] (PO, 2.5 mg/kg); 2200 ng·h/mL in data set [2] (iv, 1 mg/kg); 8690 ng·h/mL in data set [2] (po, 10 mg/kg). Also, the clearance in data set [1] (IV, 0.5 mg/kg) was determined as 7.08 mL/min/kg; in data set [2] (iv, 1 mg/kg), 7.21 mL/min/kg. Moreover, the half-life in data set [1] (PO, 2.5 mg/kg) is 10.5 h; in data set [2] (po, 10 mg/kg), 4.61 h. The IC50 on CYP1A2 is more than 10 µM; at CYP3A4, more than 10 µM; on CYP2D6 it was 6.96 µM.

The values are drawn from patent US20230212180A1, “SUBSTITUTED PYRAZINE COMPOUND, PHARMACEUTICAL COMPOSITION COMPRISING SAME, AND USE THEREOF” (Sichuan Kelun-Biotech Biopharmaceutical Co., Ltd., priority 2020, published 2023).
